Assay results: ChEMBL document CHEMBL4715849, “Recent Progress in the Discovery of Antifungal Agents Targeting the Cell Wall” (J Med Chem, 2020)
Values after ≈ are worked out from the molar mass of the structure shown.

Assays:
Candida albicans [1] = assay: Antifungal activity against Candida albicans A9540 incubated for 24 hrs by broth microdilution method; type: functional
Candida albicans [2] = assay: Antifungal activity against Candida albicans ATCC 32354 incubated for 24 hrs by broth microdilution method; type: functional
Candida albicans [3] = assay: Antifungal activity against Candida albicans 83-2-14 incubated for 24 hrs by broth microdilution method; type: functional
Candida albicans [4] = assay: Antifungal activity against Candida albicans IAM 888 incubated for 24 hrs by broth microdilution method; type: functional
Candida tropicalis [5] = assay: Antifungal activity against Candida tropicalis 85-5 incubated for 24 hrs by broth microdilution method; type: functional
Candida tropicalis [6] = assay: Antifungal activity against Candida tropicalis IFO10241 incubated for 24 hrs by broth microdilution method; type: functional
Candida albicans [7] = assay: Antifungal activity against Candida albicans CY1002 infected in iv dosed ICR mouse administered as single dose measured on day 7; type: functional; settings: 168 h, time 7 day
Candida albicans [8] = assay: Antifungal activity against Candida albicans […] by NCCLS protocol based broth M27-A microdilution method; type: functional, organism-based
[9] = Inhibition of Candida albicans IFO1060 1,3-beta-D-glucan synthase
Candida albicans [10] = assay: Antifungal activity against Candida albicans CAI4 incubated for 24 hrs; type: functional
Chitin synthase 1 = Chitin synthase 1 (Candida albicans, UniProt P23316); assay: Inhibition of Candida albicans chitin synthase 1 expressed in Saccharomyces cerevisiae RRA400-1U cells using [3H]UDP-GlcNAc as substrate by scintillation counting method
Sequence of Chitin synthase 1 (P23316 whole entry): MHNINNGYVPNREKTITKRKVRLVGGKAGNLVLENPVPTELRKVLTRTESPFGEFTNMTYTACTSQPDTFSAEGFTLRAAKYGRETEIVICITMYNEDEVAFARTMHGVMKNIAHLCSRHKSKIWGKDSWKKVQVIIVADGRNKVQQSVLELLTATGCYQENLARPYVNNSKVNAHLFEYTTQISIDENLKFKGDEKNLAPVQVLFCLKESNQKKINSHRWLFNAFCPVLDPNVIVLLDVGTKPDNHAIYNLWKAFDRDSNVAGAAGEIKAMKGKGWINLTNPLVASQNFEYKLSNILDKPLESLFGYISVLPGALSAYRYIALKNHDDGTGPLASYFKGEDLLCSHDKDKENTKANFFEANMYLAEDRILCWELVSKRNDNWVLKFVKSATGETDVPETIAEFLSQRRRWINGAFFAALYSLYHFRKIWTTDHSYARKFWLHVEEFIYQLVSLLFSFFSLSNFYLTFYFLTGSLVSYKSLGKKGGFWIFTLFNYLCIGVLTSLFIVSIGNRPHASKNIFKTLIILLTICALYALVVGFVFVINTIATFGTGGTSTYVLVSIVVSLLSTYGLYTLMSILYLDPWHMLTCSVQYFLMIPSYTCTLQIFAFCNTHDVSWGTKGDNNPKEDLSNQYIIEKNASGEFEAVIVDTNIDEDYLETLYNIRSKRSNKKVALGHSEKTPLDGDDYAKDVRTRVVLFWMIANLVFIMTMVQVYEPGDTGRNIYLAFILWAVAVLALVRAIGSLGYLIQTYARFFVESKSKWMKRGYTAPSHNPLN

Candida albicans [11] = assay: Antifungal activity against Candida albicans Ca1055 by CLSI method; type: functional
Aspergillus fumigatus [12] = assay: Antifungal activity against Aspergillus fumigatus MF5668 by CLSI method; type: functional
Clavispora lusitaniae = assay: Antifungal activity against Candida lusitaniae MY1396 by CLSI method; type: functional
Candida parapsilosis = assay: Antifungal activity against Candida parapsilosis ATCC22019 by CLSI method; type: functional; settings: Lodderomyces parapsilosis
Pichia kudriavzevii = assay: Antifungal activity against Candida krusei ATCC 6258 by CLSI method; type: functional
Nakaseomyces glabratus [13] = assay: Antifungal activity against Candida glabrata MY1381 by CLSI method; type: functional
Candida albicans [14] = assay: Antifungal activity against Candida albicans Ca2323/ORF6.945 by CLSI method; type: functional
Vanrija humicola = assay: Antifungal activity against Candida humicola incubated for 24 hrs by serial dilution method; type: functional
Debaryomyces hansenii = assay: Antifungal activity against Candida famata incubated for 24 hrs by serial dilution method; type: functional
[15] = Inhibition of Candida albicans glucosamine-6-phosphate synthase by Elson-Morgan method
Candida albicans [16] = assay: Antifungal activity against Candida albicans ATCC 26278 incubated for 24 hrs by serial dilution method; type: functional
Nakaseomyces glabratus [17] = assay: Antifungal activity against Candida glabrata incubated for 24 hrs by serial dilution method; type: functional
Candida albicans [18] = assay: Antifungal activity against Candida albicans ATCC 10261 incubated for 24 hrs by serial dilution method; type: functional
Candida albicans [19] = assay: Antifungal activity against Candida albicans CAF2-1; type: functional
[20] = Inhibition of Candida albicans GWT1 expressed in Saccharomyces cerevisiae using UDP-GlcNAc as substrate incubated for 20 mins followed by palmitoyl-CoA addition and measured after 2 hrs by TLC-based autography
[21] = Inhibition of Aspergillus fumigatus GWT1 expressed in Saccharomyces cerevisiae using UDP-GlcNAc as substrate incubated for 20 mins followed by palmitoyl-CoA addition and measured after 2 hrs by TLC-based autography
Aspergillus fumigatus [22] = assay: Antifungal activity against Aspergillus fumigatus(Tsukuba); type: functional
Candida albicans [23] = assay: Antifungal activity against Candida albicans CY1002 by NCCLS-based M27-A broth microdilution method; type: functional
Aspergillus fumigatus [24] = assay: Antifungal activity against Aspergillus fumigatus CF1003 by NCCLS-based M27-A broth microdilution method; type: functional
[25] = Antifungal activity against Mucor piriformis IF09416 by serial broth dilution method; type: functional
Mucor hiemalis = assay: Antifungal activity against Mucor hiemalis IFO9400 by serial broth dilution method; type: functional
Mucor javanicus = assay: Antifungal activity against Mucor javanicus IFO4569 by serial broth dilution method; type: functional
[26] = Inhibition of Mucor flavus IFO9560 chitin synthase incubated for 6 to 20 hrs by Lineweaver-Burk analysis
Mucor racemosus = assay: Antifungal activity against Mucor racemosus IF09255 by serial broth dilution method; type: functional
Mucor mucedo [27] = assay: Antifungal activity against Mucor mucedo IF06750 by serial broth dilution method; type: functional
Mucor mucedo [28] = assay: Antifungal activity against Mucor mucedo IF07684 by serial broth dilution method; type: functional
Mucor mucedo [29] = assay: Antifungal activity against Mucor mucedo IF05776 by serial broth dilution method; type: functional
[30] = Antifungal activity against Mucor flavus IFO9560 by serial broth dilution method; type: functional

SMILES: CCC/C=C/C=C/C=C/C(=O)OC[C@H]1O[C@@H](O[C@H]2[C@H](OC(=O)/C=C/C=C/C[C@H](O)/C=C/C=C/C=C/CCC)[C@@H](O)[C@@]3(OCc4cc(O)cc(O)c43)O[C@@H]2CO)[C@H](O)[C@@H](O)[C@H]1O
- MIC (Candida albicans [1]): 0.1 µg/mL (≈ 0.117 µM)
- MIC (Candida albicans [2]): 0.1 µg/mL (≈ 0.117 µM)
- MIC (Candida albicans [3]): 0.1 µg/mL (≈ 0.117 µM)
- MIC (Candida albicans [4]): 0.1 µg/mL (≈ 0.117 µM)
- MIC (Candida tropicalis [5]): 0.1 µg/mL (≈ 0.117 µM)
- MIC (Candida tropicalis [6]): 0.1 µg/mL (≈ 0.117 µM)

SMILES: CCCCCCCCCCCCC[C@H]1OC(=O)[C@H](CCCN)NC(=O)[C@@H]([C@@H](C)O)NC(=O)CNC(=O)[C@H]([C@H](O)CCN)NC(=O)[C@H]2[C@@H](O)CCN2C(=O)[C@H]([C@@H](C)O)NC(=O)[C@@H]2C[C@@H](O)CN2C(=O)[C@H](C(C)C)NC(=O)[C@H](Cc2ccc(O)cc2)NC(=O)[C@@H](C)NC(=O)[C@H]([C@@H](C)O)NC1=O
- ED50 (Candida albicans [7]): 0.04 mg/kg
- IC50 (Candida albicans [8]): 0.01 µg/mL (≈ 0.00712 µM)
- IC50 [9]: 0.006 µM

SMILES: CC(C)(C)C#CC=CCNc1cccc2[nH]c(=O)ccc12
- MIC50 (Candida albicans [10]): 3.3 µM (≈ 0.925 µg/mL)
- Ki (Chitin synthase 1): 0.63 µM

SMILES: C=C1[C@@H]2C[C@@H]3[C@H](C(C)C)[C@@H](OC(=O)CC(C)(O)CC(C)CC)C[C@@]3(C)C[C@H]2/C(C)=C\C[C@@H]2[C@@H](C)OC(=O)[C@H](O)[C@]12O (some centres undefined)
- MIC (Candida albicans [11]): 0.5 µg/mL (≈ 0.87 µM)
- MIC (Aspergillus fumigatus [12]): 0.25 µg/mL (≈ 0.435 µM)
- MIC (Clavispora lusitaniae): 0.25 µg/mL (≈ 0.435 µM)
- MIC (Candida parapsilosis): 0.5 µg/mL (≈ 0.87 µM)
- MIC (Pichia kudriavzevii): 1 µg/mL (≈ 1.74 µM)
- MIC (Nakaseomyces glabratus [13]): 0.5 µg/mL (≈ 0.87 µM)
- MIC (Candida albicans [14]): 0.5 µg/mL (≈ 0.87 µM)

SMILES: COP(=O)(OC)OC[C@@H](O)[C@@H](O)[C@H](O)[C@@H](N)CO
- MIC (Vanrija humicola): 300 µg/mL (≈ 1040 µM)
- MIC (Debaryomyces hansenii): 300 µg/mL (≈ 1040 µM)
- IC50 [15]: 4750 µM
- MIC (Candida albicans [16]): 300 µg/mL (≈ 1040 µM)
- MIC (Nakaseomyces glabratus [17]): 300 µg/mL (≈ 1040 µM)
- MIC (Candida albicans [18]): 300 µg/mL (≈ 1040 µM)

SMILES: Nc1ncccc1-c1cc(Cc2ccc(COc3ccccn3)cc2)no1 [MANOGEPIX]
- MIC (Candida albicans [19]): 0.05 µg/mL (≈ 0.14 µM)
- IC50 [20]: 0.27 µM
- IC50 [21]: 0.6 µM
- MIC (Aspergillus fumigatus [22]): 0.2 µg/mL (≈ 0.558 µM)

SMILES: C[C@@H]([C@H](N)C(=O)N[C@H](C(=O)O)[C@H]1O[C@@H](n2ccc(=O)[nH]c2=O)[C@H](O)[C@@H]1O)[C@H](O)c1ccc(O)cn1 [NIKKOMYCIN]
- MIC50 (Candida albicans [23]): 12 µg/mL (≈ 24.2 µM)
- MIC50 (Aspergillus fumigatus [24]): 11 µg/mL (≈ 22.2 µM)

SMILES: C[C@@H]1C[C@H]2O[C@@H]2/C=C\C=C\C(=O)Cc2c(Cl)c(O)cc(O)c2C(=O)O1 [RADICICOL]
- MIC [25]: 0.39 µg/mL (≈ 1.07 µM)
- MIC (Mucor hiemalis): 0.39 µg/mL (≈ 1.07 µM)
- MIC (Mucor javanicus): 0.39 µg/mL (≈ 1.07 µM)
- Ki [26]: 87 µM
- MIC (Mucor racemosus): 0.39 µg/mL (≈ 1.07 µM)
- MIC (Mucor mucedo [27]): 0.39 µg/mL (≈ 1.07 µM)
- MIC (Mucor mucedo [28]): 0.39 µg/mL (≈ 1.07 µM)
- MIC (Mucor mucedo [29]): 0.39 µg/mL (≈ 1.07 µM)
- MIC [30]: 0.39 µg/mL (≈ 1.07 µM)
